Active and inactive are the calls of the source.
Key:
SARS-CoV-2 [1] = assay: Antiviral activity against SARS-CoV-2 variant Omicron BA.1 infected in African green monkey Vero E6 cells assessed as inhibition of virus titers of progeny virus in supernatant at 37.5 uM measured after 72 hrs by CPE assay relative to control; assay type: functional; details: Severe acute respiratory syndrome coronavirus 2, Omicron BA.1, Vero C1008
SARS-CoV-2 [2] = assay: Antiviral activity against SARS-CoV-2 variant Omicron BA.1 infected in African green monkey Vero E6 cells assessed as reduction in virus titers of progeny virus in supernatant measured after 72 hrs by CPE assay; assay type: functional, organism-based; details: Severe acute respiratory syndrome coronavirus 2, Omicron BA.1, Vero C1008, 72 h
SARS-CoV-2 [3] = assay: Antiviral activity against SARS-CoV-2 variant Omicron BA.2 infected in African green monkey Vero E6 cells assessed as reduction in virus titers of progeny virus in supernatant measured after 72 hrs by CPE assay; assay type: functional, organism-based; details: Severe acute respiratory syndrome coronavirus 2, Omicron BA.2, Vero C1008, 72 h
SARS-CoV-2 [4] = assay: Antiviral activity against SARS-CoV-2 variant Omicron BA.4 infected in African green monkey Vero E6 cells assessed as reduction in virus titers of progeny virus in supernatant measured after 72 hrs by CPE assay; assay type: functional, organism-based; details: Severe acute respiratory syndrome coronavirus 2, Omicron BA.4, Vero C1008, 72 h
SARS-CoV-2 [5] = assay: Antiviral activity against SARS-CoV-2 variant Omicron BA.5 infected in African green monkey Vero E6 cells assessed as reduction in virus titers of progeny virus in supernatant measured after 72 hrs by CPE assay; assay type: functional, organism-based; details: Severe acute respiratory syndrome coronavirus 2, Omicron BA.5, Vero C1008, 72 h
SARS-CoV-2 [6] = assay: Antiviral activity against SARS-CoV-2 variant Omicron BA.3 infected African green monkey Vero E6 cells assessed as reduction in virus-induced cytopathic effect at 37.5 uM preincubated with virus for 1 hr followed by infection with cells and measured after 72 hrs by microscopic analysis; assay type: functional, organism-based; details: Severe acute respiratory syndrome coronavirus 2, time 73.0 hrs
SARS-CoV-2 [7] = assay: Antiviral activity against SARS-CoV-2 variant Omicron BA.3 infected in African green monkey Vero E6 cells assessed as reduction in virus titers of progeny virus in supernatant measured after 72 hrs by CPE assay; assay type: functional, organism-based; details: Severe acute respiratory syndrome coronavirus 2, Omicron BA.3, Vero C1008, 72 h
SARS-CoV-2 [8] = assay: Antiviral activity against SARS-CoV-2 variant Omicron BA.5 infected in African green monkey Vero E6 cells assessed as reduction in viral replication at 37.5 uM measured at 72 hrs post-infection by qRT-PCR analysis; assay type: functional, organism-based; details: Severe acute respiratory syndrome coronavirus 2
SARS-CoV-2 [9] = assay: Antiviral activity against SARS-CoV-2 variant Omicron BA.1 infected in African green monkey Vero E6 cells assessed as reduction in virus-induced cytopathic effect at 37.5 uM preincubated with virus for 1 hr followed by infection with cells and measured after 72 hrs by microscopic analysis; assay type: functional, organism-based; details: Severe acute respiratory syndrome coronavirus 2, time 73.0 hrs
SARS-CoV-2 [10] = assay: Antiviral activity against SARS-CoV-2 variant Omicron BA.5 infected African green monkey Vero E6 cells assessed as reduction in virus-induced cytopathic effect at 37.5 uM preincubated with virus for 1 hr followed by infection with cells and measured after 72 hrs by microscopic analysis; assay type: functional, organism-based; details: Severe acute respiratory syndrome coronavirus 2, time 73.0 hrs
SARS-CoV-2 [11] = assay: Antiviral activity against SARS-CoV-2 variant Omicron BA.3 infected in African green monkey Vero E6 cells assessed as inhibition of virus titers of progeny virus in supernatant at 37.5 uM measured after 72 hrs by CPE assay relative to control; assay type: functional; details: Severe acute respiratory syndrome coronavirus 2, Omicron BA.3, Vero C1008
SARS-CoV-2 [12] = assay: Antiviral activity against SARS-CoV-2 variant Omicron BA.2 infected in African green monkey Vero E6 cells assessed as inhibition of virus titers of progeny virus in supernatant at 37.5 uM measured after 72 hrs by CPE assay relative to control; assay type: functional; details: Severe acute respiratory syndrome coronavirus 2, Omicron BA.2, Vero C1008
SARS-CoV-2 [13] = assay: Antiviral activity against SARS-CoV-2 variant Omicron BA.1 infected in African green monkey Vero E6 cells assessed as reduction in viral replication at 37.5 uM measured at 72 hrs post-infection by qRT-PCR analysis; assay type: functional, organism-based; details: Severe acute respiratory syndrome coronavirus 2
SARS-CoV-2 [14] = assay: Antiviral activity against SARS-CoV-2 variant Omicron BA.2 infected in African green monkey Vero E6 cells assessed as reduction in virus-induced cytopathic effect at 37.5 uM preincubated with virus for 1 hr followed by infection with cells and measured after 72 hrs by microscopic analysis; assay type: functional, organism-based; details: Severe acute respiratory syndrome coronavirus 2, time 73.0 hrs
SARS-CoV-2 [15] = assay: Antiviral activity against SARS-CoV-2 variant Omicron BA.4 infected in African green monkey Vero E6 cells assessed as inhibition of virus titers of progeny virus in supernatant at 37.5 uM measured after 72 hrs by CPE assay relative to control; assay type: functional; details: Severe acute respiratory syndrome coronavirus 2, Omicron BA.4, Vero C1008
SARS-CoV-2 [16] = assay: Antiviral activity against SARS-CoV-2 variant Omicron BA.5 infected in African green monkey Vero E6 cells assessed as inhibition of virus titers of progeny virus in supernatant at 37.5 uM measured after 72 hrs by CPE assay relative to control; assay type: functional; details: Severe acute respiratory syndrome coronavirus 2, Omicron BA.5, Vero C1008
SARS-CoV-2 [17] = assay: Antiviral activity against SARS-CoV-2 variant Omicron BA.4 infected African green monkey Vero E6 cells assessed as reduction in virus-induced cytopathic effect at 37.5 uM preincubated with virus for 1 hr followed by infection with cells and measured after 72 hrs by microscopic analysis; assay type: functional, organism-based; details: Severe acute respiratory syndrome coronavirus 2, time 73.0 hrs
SARS-CoV-2 [18] = assay: Antiviral activity against SARS-CoV-2 variant Delta infected in African green monkey Vero E6 cells assessed as reduction in viral replication at 37.5 uM measured at 72 hrs post-infection by qRT-PCR analysis; assay type: functional, organism-based; details: Severe acute respiratory syndrome coronavirus 2
SARS-CoV-2 [19] = assay: Antiviral activity against SARS-CoV-2 variant Omicron BA.4 infected in African green monkey Vero E6 cells assessed as reduction in viral replication at 37.5 uM measured at 72 hrs post-infection by qRT-PCR analysis; assay type: functional, organism-based; details: Severe acute respiratory syndrome coronavirus 2
SARS-CoV-2 [20] = assay: Antiviral activity against SARS-CoV-2 variant Omicron BA.2 infected in African green monkey Vero E6 cells assessed as reduction in viral replication at 37.5 uM measured at 72 hrs post-infection by qRT-PCR analysis; assay type: functional, organism-based; details: Severe acute respiratory syndrome coronavirus 2
SARS-CoV-2 [21] = assay: Antiviral activity against SARS-CoV-2 variant Omicron BA.3 infected in African green monkey Vero E6 cells assessed as reduction in viral replication at 37.5 uM measured at 72 hrs post-infection by qRT-PCR analysis; assay type: functional, organism-based; details: Severe acute respiratory syndrome coronavirus 2
SARS-CoV-2 [22] = assay: Antiviral activity against SARS-CoV-2 variant Delta infected in African green monkey Vero E6 cells assessed as reduction in virus titers of progeny virus in supernatant measured after 72 hrs by CPE assay; assay type: functional, organism-based; details: Severe acute respiratory syndrome coronavirus 2, Delta, Vero C1008, 72 h
SARS-CoV-2 [23] = assay: Antiviral activity against SARS-CoV-2 variant Delta infected in African green monkey Vero E6 cells assessed as reduction in virus-induced cytopathic effect at 37.5 uM preincubated with virus for 1 hr followed by infection with cells and measured after 72 hrs by microscopic analysis; assay type: functional, organism-based; details: Severe acute respiratory syndrome coronavirus 2, time 73.0 hrs
SARS-CoV-2 [24] = assay: Antiviral activity against SARS-CoV-2 variant Delta infected in African green monkey Vero E6 cells assessed as inhibition of virus titers of progeny virus in supernatant at 37.5 uM measured after 72 hrs by CPE assay relative to control; assay type: functional; details: Severe acute respiratory syndrome coronavirus 2, Delta, Vero C1008

C=C(C)[C@@H]1CCC(C)=C[C@H]1c1c(O)cc(CCCCC)c(C(=O)OC)c1O
15.5 µM: IC50 (SARS-CoV-2 [2])
15.9 µM: IC50 (SARS-CoV-2 [22])
18.6 µM: IC50 (SARS-CoV-2 [5]) | IC50 (SARS-CoV-2 [7])
16.6 µM: IC50 (SARS-CoV-2 [3])
19 µM: IC50 (SARS-CoV-2 [4])
active: Activity (SARS-CoV-2 [6]) | Activity (SARS-CoV-2 [8]) | Activity (SARS-CoV-2 [9]) | Activity (SARS-CoV-2 [10]) | Activity (SARS-CoV-2 [13]) | Activity (SARS-CoV-2 [14]) | Activity (SARS-CoV-2 [17]) | Activity (SARS-CoV-2 [18]) | Activity (SARS-CoV-2 [19]) | Activity (SARS-CoV-2 [20]) | Activity (SARS-CoV-2 [21]) | Activity (SARS-CoV-2 [23])
> 90%: inhibition at 37.5 µM (SARS-CoV-2 [1]) | inhibition at 37.5 µM (SARS-CoV-2 [11]) | inhibition at 37.5 µM (SARS-CoV-2 [12]) | inhibition at 37.5 µM (SARS-CoV-2 [15]) | inhibition at 37.5 µM (SARS-CoV-2 [16]) | inhibition at 37.5 µM (SARS-CoV-2 [24])
